pIC50: −log10 of the molar value. Read-outs that look alike come from different tables or passages of the source.
Key:
ITK = biological target: T1, ITK (Homo sapiens, UniProt Q08881); assay: Inhibition of a panel of kinases, in vitro HotSpot kinase assay: ITK; type: biochemical
T1 sequence (Q08881 1-620): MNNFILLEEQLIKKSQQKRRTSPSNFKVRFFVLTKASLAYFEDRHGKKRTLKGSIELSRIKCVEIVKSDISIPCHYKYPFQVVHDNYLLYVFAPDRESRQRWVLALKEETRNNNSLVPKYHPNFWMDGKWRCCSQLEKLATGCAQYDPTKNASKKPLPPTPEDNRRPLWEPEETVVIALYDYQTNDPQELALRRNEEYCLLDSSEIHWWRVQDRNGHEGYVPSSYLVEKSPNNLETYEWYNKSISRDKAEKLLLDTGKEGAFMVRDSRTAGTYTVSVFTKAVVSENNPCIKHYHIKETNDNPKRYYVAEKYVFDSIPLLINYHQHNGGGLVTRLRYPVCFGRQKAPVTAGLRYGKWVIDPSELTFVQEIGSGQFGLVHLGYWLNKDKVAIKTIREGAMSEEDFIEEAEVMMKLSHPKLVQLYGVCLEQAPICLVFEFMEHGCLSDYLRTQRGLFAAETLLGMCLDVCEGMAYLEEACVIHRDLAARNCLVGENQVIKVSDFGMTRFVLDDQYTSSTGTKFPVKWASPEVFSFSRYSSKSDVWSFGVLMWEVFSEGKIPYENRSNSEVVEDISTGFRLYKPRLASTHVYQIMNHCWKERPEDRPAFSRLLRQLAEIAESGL
Experimental: The degree of inhibition of a panel of kinases is determined using the in vitro HotSpot kinase assay (purified enzymes, ^33P-ATP, an appropriate substrate and 1 μM ATP).

BTK-WT = biological target: T2, BTK-WT (Homo sapiens, UniProt Q06187); assay: Btk in vitro inhibitory activity (one of Method A TR-FRET, Method B electrophoretic mobility shift, Method C radiometric filter binding); type: biochemical; settings: read-out: IC50 BTK-WT
T2 construct: purified from insect cells as a full-length construct containing an N-terminal 6X-His tag; His6 (N); made in house; host or cells: insect cells (baculovirus Sf21 in Method B)
T2 sequence (Q06187 whole entry): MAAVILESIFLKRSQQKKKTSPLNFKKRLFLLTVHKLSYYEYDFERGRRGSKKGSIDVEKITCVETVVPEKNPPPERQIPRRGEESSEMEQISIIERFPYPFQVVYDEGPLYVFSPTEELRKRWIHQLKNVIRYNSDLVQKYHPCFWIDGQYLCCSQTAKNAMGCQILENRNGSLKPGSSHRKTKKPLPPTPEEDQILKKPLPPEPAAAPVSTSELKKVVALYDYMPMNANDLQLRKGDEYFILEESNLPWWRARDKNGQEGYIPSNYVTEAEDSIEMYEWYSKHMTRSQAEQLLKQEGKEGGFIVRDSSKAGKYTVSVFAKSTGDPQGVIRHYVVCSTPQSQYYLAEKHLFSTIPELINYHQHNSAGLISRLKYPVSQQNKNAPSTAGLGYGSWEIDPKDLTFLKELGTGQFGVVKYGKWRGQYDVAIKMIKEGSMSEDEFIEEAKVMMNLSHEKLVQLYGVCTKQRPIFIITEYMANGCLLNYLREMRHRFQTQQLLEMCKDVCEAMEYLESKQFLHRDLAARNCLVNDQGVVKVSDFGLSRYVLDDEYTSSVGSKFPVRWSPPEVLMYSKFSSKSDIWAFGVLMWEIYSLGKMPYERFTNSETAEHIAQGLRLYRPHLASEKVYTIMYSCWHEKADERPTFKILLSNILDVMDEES
Experimental: Btk kinase activity is determined using a time-resolved fluorescence resonance energy transfer (TR-FRET) methodology. Measurements are performed in a reaction volume of 50 μL using 96-well assay plates. […] The reaction is quenched by the addition of 1.2 equivalents of EDTA (relative to divalent cation) in 25 μL of 1× Lance buffer (Perkin-Elmer). […] The TR-FRET signal is measured on a multimode plate reader with an excitation wavelength (λEx) of 330 nm and detection wavelengths (λEm) of 615 and 665 nm. Activity is determined by the ratio of the fluorescence at 665 nm to that at 615 nm. For each compound, enzyme activity is measured at various concentrations of compound. Negative control reactions are performed in the absence of inhibitor in replicates of six, and two no-enzyme controls are used to determine baseline fluorescence levels. Inhibition constants, Ki(app), were obtained using the program BatchKi(Kuzmic et al. (2000), Anal. Biochem. 286:45-50). IC50s are obtained according to the equation:
IC50={Ki(app)/(1+[ATP]/Km^ATP)}+[E]total/2;
Kinase activity is measured in vitro using electrophoretic mobility shift assay. The kinase reactions are assembled in a total volume of 25 μL in 384 well plates. […] The reaction is incubated for one hour and is quenched by the addition of 45 μL of termination buffer (100 mM HEPES, pH7.5, 0.01% Triton X-100, 30 mM EDTA). The terminated reactions are analyzed using 12 channel LabChip® 3000 microfluidic detection instrument (Caliper Life Sciences). […] Change in the relative fluorescence intensity of the substrate and product peaks is the parameter measured, reflecting enzyme activity. In the presence of an inhibitor, the ratio between product and substrate is altered: the signal of the product decreases, while the signal of the substrate increases.
Activity in each sample is determined as the product to sum ratio (PSR): P/(S+P), where P is the peak height of the product peptide and S is the peak height of the substrate peptide. For each compound, enzyme activity is measured at various concentrations (12 concentrations of compound spaced by 3× dilution intervals). Negative control samples (0%-inhibition in the absence of inhibitor) and positive control samples (100%-inhibition, in the presence of 20 mM EDTA) are assembled in replicates of four and are used to calculate %-inhibition values for each inhibitor at each concentration. Percent inhibition (Pinh) is determined using following equation:
Pinh=(PSR0%-PSRinh)/(PSR0%−PSR100%)*100, where PSRinh is the product sum ratio in the presence of inhibitor, PSR0% is the average product sum ration in the absence of inhibitor and PSR100% is the average product sum ratio in 100%-inhibition control samples;
The IC50 values of inhibitors are determined by 4 parameter sigmoidal dose-response model fitting of the inhibition curves (Pinh versus inhibitor concentration) using XLfit 4 software.
Human Btk kinase (Genbank accession # NP_000052) was purified from insect cells as a full-length construct containing an N-terminal 6X-His tag. Btk kinase activity was determined using a radiometric filter binding assay. Measurements are performed in a low μL reaction volume 384-well assay plates. […] IC50 values and curve fits were obtained using Prism (GraphPad Software).

[1] = Table 15, C compounds, 1 μM ATP

SMILES	pIC50 (ITK; E compounds, Table 17)	pIC50 (BTK-WT; E compounds, Table 17)	pIC50 (ITK; [1])	pIC50 (BTK-WT; Table 15, C compounds)
C=CC(=O)N1CCC[C@@H](Nc2nnc(C(N)=O)c(Nc3ccc4c(c3)CCC(=O)N4C)n2)C1 [Example E-71, (R)-3-(1-acryloylpiperidin-3-ylamino)-5-(1-methyl-2-oxo-1,2,3,4-tetrahydroquinolin-6-ylamino)-1,2,4-triazine-6-carboxamide]	≥ 8.00	≥ 8.00		
C=CC(=O)N1CCC[C@@H](Nc2nnc(C(N)=O)c(Nc3ccc(C4(C#N)CC4)cc3)n2)C1 [Example E-38, (R)-3-(1-acryloylpiperidin-3-ylamino)-5-(4-(1-cyanocyclopropyl)phenylamino)-1,2,4-triazine-6-carboxamide]	≥ 8.00	≥ 8.00		
C=CC(=O)N1CCC[C@@H](Nc2nnc(C(N)=O)c(Nc3ccc(CN[C@@H](C)C(C)(C)C)cc3)n2)C1 [Example C-73, 3-((R)-1-acryloylpiperidin-3-ylamino)-5-(4-(((S)-3,3-dimethylbutan-2-ylamino)methyl)phenyl-amino)-1,2,4-triazine-6-carboxamide]			≥ 8.00	≥ 8.00
C=CC(=O)N1CCC[C@@H](Nc2nnc(C(N)=O)c(Nc3cccc(-c4nccs4)c3)n2)C1 [Example C-86, (R)-3-(1-acryloylpiperidin-3-ylamino)-5-(3-(thiazol-2-yl)phenylamino)-1,2,4-triazine-6-carboxamide]			7.00 to 8.00	≥ 8.00
C=CC(=O)N[C@H]1CCCC[C@H]1Nc1nnc(C(N)=O)c(Nc2ccc(C(C)C)cc2)n1 [Example E-25, 3-((1R,2S)-2-acrylamidocyclohexyl-amino)-5-(4-isopropylphenylamino)-1,2,4-triazine-6-carboxamide]	6.00 to 7.00	≥ 8.00		
CCC(=O)N1CCC[C@@H](Nc2nnc(C(N)=O)c(Nc3ccc(C(C)(C)C)cc3)n2)C1 [Example C-46, (R)-5-(4-tert-butylphenylamino)-3-(1-propionylpiperidin-3-ylamino)-1,2,4-triazine-6-carboxamide]			6.00 to 7.00	≥ 8.00
C=CC(=O)N1CCC(C)(c2ccc(Nc3nc(N[C@@H]4CCCN(C(=O)C=C)C4)nnc3C(N)=O)cc2)CC1 [Example C-45, (R)-5-(4-(1-acryloyl-4-methylpiperidin-4-yl)phenylamino)-3-(1-acryloylpiperidin-3-ylamino)-1,2,4-triazine-6-carboxamide]			≥ 8.00	≥ 8.00
CCC(=O)N1CCC[C@@H](Nc2nnc(C(N)=O)c(Nc3ccc(C(C)(C)C)cc3)n2)C1 [Example E-35, (R)-5-(4-tert-butylphenylamino)-3-(1-propionylpiperidin-3-ylamino)-1,2,4-triazine-6-carboxamide]	6.00 to 7.00	≥ 8.00		

Now from value to molecule:

pIC50 (ITK; E compounds, Table 17)	pIC50 (BTK-WT; E compounds, Table 17)	pIC50 (ITK; [1])	pIC50 (BTK-WT; Table 15, C compounds)	SMILES
		7.00 to 8.00	≥ 8.00	C=CC(=O)N1CCC[C@H](Nc2nnc(C(N)=O)c(Nc3ccc(-c4ncco4)cc3)n2)C1 [Example C-34, (S)-3-(1-acryloylpiperidin-3-ylamino)-5-(4-(oxazol-2-yl)phenylamino)-1,2,4-triazine-6-carboxamide]
7.00 to 8.00	≥ 8.00			C=CC(=O)N1CCC[C@H](Nc2nnc(C(N)=O)c(Nc3ccc(C(C)(C)C)cc3)n2)C1 [Example E-23, (S)-3-(1-acryloylpiperidin-3-ylamino)-5-(4-tert-butylphenylamino)-1,2,4-triazine-6-carboxamide]
7.00 to 8.00	≥ 8.00			C=CC(=O)N1CCC[C@H](Nc2nnc(C(N)=O)c(Nc3ccc(-c4ncco4)cc3)n2)C1 [Example E-18, (S)-3-(1-acryloylpiperidin-3-ylamino)-5-(4-(oxazol-2-yl)phenylamino)-1,2,4-triazine-6-carboxamide]
7.00 to 8.00	≥ 8.00			C=CC(=O)N1CCC[C@@H](Nc2nnc(C(N)=O)c(Nc3ccc(-c4cnn(C(=O)C=C)c4)cc3)n2)C1 [Example E-60, (R)-5-(4-(1-acryloyl-1H-pyrazol-4-yl)phenylamino)-3-(1-acryloylpiperidin-3-ylamino)-1,2,4-triazine-6-carboxamide]

Source: US20210070748A1, “INHIBITORS OF BRUTONS TYROSINE KINASE” (Pharmacyclics LLC, priority 2015, published 2021)
